Data taken from patent US20190119729A1, “METHOD OF DETECTING AND TREATING P. ACNES AND KIT THEREOF” (priority 2016, published 2019).
Values after ≈ are worked out from the molar mass of the structure shown.

Assays:
[1] = tested on: P. acnes clinical isolates (clindamycin resistant); assay: Antimicrobial susceptibility of clindamycin resistant P. acnes clinical isolates against various antibiotics (Table 2); type: cell-based; settings: for MIC: Cutibacterium acnes; for susceptibility of the strains as indicated by MIC values: all the clindamycin, erythromycin resistant strains of Table 2
Description: Various clinical isolates are obtained from patients carrying Clindamycin Resistant P. acnes and their antimicrobial susceptibility to fluoroquinolone antibiotics is studied vis-à-vis susceptibility to Clindamycin and Erythromycin.

[2] = tested on: P. acnes isolates; assay: Antimicrobial susceptibility patterns of P. acnes isolates against different antibiotics (Table 1); type: cell-based; settings: Cutibacterium acnes
Description: Table 1 below depicts the antimicrobial susceptibility patterns of P. acnes isolates against different antibiotics: […]

[3] = tested on: P. acnes; settings: in those receiving prolonged antibiotic therapy with the drug (Leyden et al 1983); cited from earlier work
[4] = isolate V21A1, phylotype IA1, type IV, 23S rRNA A2059G
[5] = isolate V21A2, phylotype IB, type I, 23S rRNA A2058G
[6] = isolate V21A3, phylotype IB, type I, 23S rRNA A2058G
[7] = isolate V21A4, phylotype IB, type I, 23S rRNA A2058G
[8] = isolate V21A5, phylotype IA1, type IV, 23S rRNA A2059G
[9] = isolate V21A6, phylotype IA1, type IV, 23S rRNA A2059G
[10] = isolate V21A7, phylotype IA1, type IV, 23S rRNA A2059G
[11] = isolate V21A8, phylotype IA1, type IV, 23S rRNA A2059G
[12] = isolate V21A9, phylotype IB, type I, 23S rRNA A2058G
[13] = isolate V21A10, phylotype IB, type I, 23S rRNA A2058G
[14] = isolate V21B2, phylotype IB, type I, 23S rRNA A2058G
[15] = isolate V21B4, phylotype IB, type I, 23S rRNA A2058G
[16] = isolate V21B6, phylotype IB, type I, 23S rRNA A2058G
[17] = isolate V21B7, phylotype IB, type I, 23S rRNA A2058G
[18] = isolate V21B8, phylotype IB, type I, 23S rRNA A2058G

SMILES | MIC ([1]; P. acnes strain V21A-1) | MIC ([1]; P. acnes strain V21A-2) | MIC ([1]; P. acnes strain V21A-4) | MIC ([1]; P. acnes strain V21A-5) | MIC ([1]; P. acnes strain V21A-6) | MIC ([1]; P. acnes strain V21A-8) | MIC ([1]; P. acnes strain V21A-9) | MIC ([1]; P. acnes strain V21A-10) | MIC ([1]; P. acnes strain V21B-1) | MIC ([1]; P. acnes strain V21B-2) | MIC ([1]; P. acnes strain V21B-3) | MIC ([1]; P. acnes strain V21B-4) | MIC ([1]; P. acnes strain V21B-5) | MIC ([1]; P. acnes strain V21B-6) | MIC ([1]; P. acnes strain V21B-7) | MIC ([1]; P. acnes strain V21B-8) | susceptibility of the strains as indicated by MIC values [1] | MIC [2, 4] | MIC [2, 5] | MIC ([1]; P. acnes strain V21A-7) | also measured
CC1CCc2c(N3CCC(O)CC3)c(F)cc3c(=O)c(C(=O)O)cn1c23 (centres unmarked) [Nadifloxacin, nadifloxacin] | < 0.13 µg/mL | 0.3 µg/mL (≈ 0.832 µM) | 0.3 µg/mL (≈ 0.832 µM) | < 0.13 µg/mL | 0.3 µg/mL (≈ 0.832 µM) | < 0.13 µg/mL | 0.3 µg/mL (≈ 0.832 µM) | 0.3 µg/mL (≈ 0.832 µM) | 0.5 µg/mL (≈ 1.39 µM) | 0.5 µg/mL (≈ 1.39 µM) | 0.5 µg/mL (≈ 1.39 µM) | 0.5 µg/mL (≈ 1.39 µM) | 0.5 µg/mL (≈ 1.39 µM) | 0.5 µg/mL (≈ 1.39 µM) | 0.5 µg/mL (≈ 1.39 µM) | 0.5 µg/mL (≈ 1.39 µM) | susceptible |  |  |  | 
C[C@H]1COc2c(N3CCN(C)CC3)c(F)cc3c(=O)c(C(=O)O)cn1c23 [Levofloxacin, levofloxacin] | < 0.13 µg/mL |  |  | < 0.13 µg/mL |  | < 0.13 µg/mL |  |  | 0.5 µg/mL (≈ 1.38 µM) | 0.3 µg/mL (≈ 0.83 µM) | 0.5 µg/mL (≈ 1.38 µM) | 0.5 µg/mL (≈ 1.38 µM) | 0.5 µg/mL (≈ 1.38 µM) | 0.5 µg/mL (≈ 1.38 µM) | 0.3 µg/mL (≈ 0.83 µM) | 0.5 µg/mL (≈ 1.38 µM) |  |  |  |  | 
CC[C@H]1OC(=O)[C@H](C)[C@@H](O[C@H]2C[C@@](C)(OC)[C@@H](O)[C@H](C)O2)[C@H](C)[C@@H](O[C@@H]2O[C@H](C)C[C@H](N(C)C)[C@H]2O)[C@](C)(O)C[C@@H](C)C(=O)[C@H](C)[C@@H](O)[C@]1(C)O [Erythromycin, erythromycin] | 50 to 200 µg/mL (≈ 68.1 to 273 µM) | 50 to 200 µg/mL (≈ 68.1 to 273 µM) | 100 to 200 µg/mL (≈ 136 to 273 µM) | 100 to 200 µg/mL (≈ 136 to 273 µM) | 100 to 200 µg/mL (≈ 136 to 273 µM) | 100 to 200 µg/mL (≈ 136 to 273 µM) | 100 to 200 µg/mL (≈ 136 to 273 µM) | 100 to 200 µg/mL (≈ 136 to 273 µM) | > 200 µg/mL | > 200 µg/mL | > 200 µg/mL | 200 µg/mL (≈ 273 µM) | > 200 µg/mL | > 200 µg/mL | > 200 µg/mL | > 200 µg/mL |  | 50 to 200 µg/mL (≈ 68.1 to 273 µM) | 50 to 200 µg/mL (≈ 68.1 to 273 µM) | 100 to 200 µg/mL (≈ 136 to 273 µM) | MIC [2, 6]: 100 to 200 µg/mL (≈ 136 to 273 µM); MIC [2, 7]: 100 to 200 µg/mL (≈ 136 to 273 µM); MIC [2, 8]: 100 to 200 µg/mL (≈ 136 to 273 µM); MIC [2, 9]: 100 to 200 µg/mL (≈ 136 to 273 µM); MIC [2, 10]: 100 to 200 µg/mL (≈ 136 to 273 µM); MIC [2, 11]: 100 to 200 µg/mL (≈ 136 to 273 µM); MIC [2, 12]: 100 to 200 µg/mL (≈ 136 to 273 µM); MIC [2, 13]: 100 to 200 µg/mL (≈ 136 to 273 µM); MIC [2, 14]: > 200 µg/mL; MIC ([2]; isolate V21B3, phylotype IB, type I, 23S rRNA A2058G): > 200 µg/mL; MIC [2, 15]: > 200 µg/mL; MIC [2, 16]: > 200 µg/mL; MIC [2, 17]: > 200 µg/mL; MIC [2, 18]: > 200 µg/mL; MIC ([1]; P. acnes strain V21A-3): 100 to 200 µg/mL (≈ 136 to 273 µM); increase of average MIC [3]: 100 fold
N[C@@H]1CCCCN(c2c(F)cc3c(=O)c(C(=O)O)cn(C4CC4)c3c2Cl)C1 [Besifloxacin, besifloxacin] |  |  |  |  |  |  |  |  | 0.5 µg/mL (≈ 1.27 µM) | 0.25 µg/mL (≈ 0.635 µM) | 0.25 µg/mL (≈ 0.635 µM) | 0.25 µg/mL (≈ 0.635 µM) | 0.5 µg/mL (≈ 1.27 µM) | 0.25 µg/mL (≈ 0.635 µM) | 0.25 µg/mL (≈ 0.635 µM) | 0.25 µg/mL (≈ 0.635 µM) | susceptible |  |  | 0.13 µg/mL (≈ 0.33 µM) | 
CCC[C@@H]1C[C@@H](C(=O)N[C@@H]([C@H]2O[C@H](SC)[C@H](O)[C@@H](O)[C@H]2O)[C@H](C)Cl)N(C)C1 [Clindamycin, clindamycin] | 1 to 8 µg/mL (≈ 2.35 to 18.8 µM) | 8 to 64 µg/mL (≈ 18.8 to 151 µM) |  | 1 µg/mL (≈ 2.35 µM) | 1 to 2 µg/mL (≈ 2.35 to 4.71 µM) | 1 to 2 µg/mL (≈ 2.35 to 4.71 µM) | 16 to 32 µg/mL (≈ 37.6 to 75.3 µM) |  | 64 µg/mL (≈ 151 µM) | 16 to 64 µg/mL (≈ 37.6 to 151 µM) | 64 µg/mL (≈ 151 µM) | 32 to 64 µg/mL (≈ 75.3 to 151 µM) | 1 to 4 µg/mL (≈ 2.35 to 9.41 µM) | 16 to 64 µg/mL (≈ 37.6 to 151 µM) | 16 to 64 µg/mL (≈ 37.6 to 151 µM) | 16 to 64 µg/mL (≈ 37.6 to 151 µM) |  | 1 to 8 µg/mL (≈ 2.35 to 18.8 µM) | 8 to 64 µg/mL (≈ 18.8 to 151 µM) | 0.5 to 2 µg/mL (≈ 1.18 to 4.71 µM) | MIC [2, 6]: 8 to 32 µg/mL (≈ 18.8 to 75.3 µM); MIC [2, 7]: 16 to 64 µg/mL (≈ 37.6 to 151 µM); MIC [2, 8]: 1 µg/mL (≈ 2.35 µM); MIC [2, 9]: 1 to 2 µg/mL (≈ 2.35 to 4.71 µM); MIC [2, 10]: 0.5 to 2 µg/mL (≈ 1.18 to 4.71 µM); MIC [2, 11]: 1 to 2 µg/mL (≈ 2.35 to 4.71 µM); MIC [2, 12]: 16 to 32 µg/mL (≈ 37.6 to 75.3 µM); MIC [2, 13]: 16 to 64 µg/mL (≈ 37.6 to 151 µM); MIC [2, 14]: 16 to 64 µg/mL (≈ 37.6 to 151 µM); MIC [2, 15]: 32 to 64 µg/mL (≈ 75.3 to 151 µM); MIC [2, 16]: 16 to 64 µg/mL (≈ 37.6 to 151 µM); MIC [2, 17]: 16 to 64 µg/mL (≈ 37.6 to 151 µM); MIC [2, 18]: 16 to 64 µg/mL (≈ 37.6 to 151 µM); MIC ([1]; P. acnes strain V21A-3): 8 to 32 µg/mL (≈ 18.8 to 75.3 µM)
